Measured values as given in ChEMBL document CHEMBL4627246, “Pyroglutamide-Based P2X7 Receptor Antagonists Targeting Inflammatory Bowel Disease” (J Med Chem, 2020).

Tests used:
Format in all cases: cell-based
[1] = test system: NCI-H522; experiment: Cytotoxicity against human NCI-H522 cells assessed as effect on cell growth at 10 uM incubated for 48 hrs by sulforhodamine B assay; conditions: nci-h522, 48 h
[2] = test system: SF-268; experiment: Cytotoxicity against human SF268 cells assessed as effect on cell growth at 10 uM incubated for 48 hrs by sulforhodamine B assay; conditions: sf-268, 48 h
[3] = test system: U-251; experiment: Cytotoxicity against human U251 cells assessed as effect on cell growth at 10 uM incubated for 48 hrs by sulforhodamine B assay; conditions: u-251, 48 h
[4] = test system: A549; experiment: Cytotoxicity against human A549/ATCC cells assessed as effect on cell growth at 10 uM incubated for 48 hrs by sulforhodamine B assay; conditions: a549, 48 h
[5] = test system: IGROV-1; experiment: Cytotoxicity against human IGROV1 cells assessed as effect on cell growth at 10 uM incubated for 48 hrs by sulforhodamine B assay; conditions: igrov-1, 48 h
[6] = test system: SK-OV-3; experiment: Cytotoxicity against human SKOV3 cells assessed as effect on cell growth at 10 uM incubated for 48 hrs by sulforhodamine B assay; conditions: sk-ov-3, 48 h
[7] = test system: TK-10; experiment: Cytotoxicity against human TK10 cells assessed as effect on cell growth at 10 uM incubated for 48 hrs by sulforhodamine B assay; conditions: tk-10, 48 h
[8] = test system: CAKI-1; experiment: Growth inhibition of human Caki1 cells assessed as growth percentage at 10 uM incubated for 48 hrs by sulforhodamine B assay; conditions: caki-1, 48 h
[9] = test system: SK-MEL-28; experiment: Cytotoxicity against human SK-MEL-28 cells assessed as effect on cell growth at 10 uM incubated for 48 hrs by sulforhodamine B assay; conditions: sk-mel-28, 48 h
[10] = test system: NCI-H23; experiment: Cytotoxicity against human NCI-H23 cells assessed as effect on cell growth at 10 uM incubated for 48 hrs by sulforhodamine B assay; conditions: nci-h23, 48 h
[11] = test system: NCI-H226; experiment: Cytotoxicity against human NCI-H226 cells assessed as effect on cell growth at 10 uM incubated for 48 hrs by sulforhodamine B assay; conditions: nci-h226, 48 h
[12] = test system: SN12C; experiment: Cytotoxicity against human SN12C cells assessed as effect on cell growth at 10 uM incubated for 48 hrs by sulforhodamine B assay
[13] = test system: MOLT-4; experiment: Cytotoxicity against human MOLT4 cells assessed as effect on cell growth at 10 uM incubated for 48 hrs by sulforhodamine B assay; conditions: molt-4, 48 h
[14] = test system: SK-MEL-2; experiment: Cytotoxicity against human SK-MEL-2 cells assessed as effect on cell growth at 10 uM incubated for 48 hrs by sulforhodamine B assay; conditions: sk-mel-2, 48 h
[15] = test system: OVCAR-3; experiment: Cytotoxicity against human OVCAR3 cells assessed as effect on cell growth at 10 uM incubated for 48 hrs by sulforhodamine B assay; conditions: ovcar-3, 48 h
[16] = test system: LOX IMVI; experiment: Cytotoxicity against human LOXIMVI cells assessed as effect on cell growth at 10 uM incubated for 48 hrs by sulforhodamine B assay
[17] = test system: HT-29; experiment: Cytotoxicity against human HT-29 cells assessed as effect on cell growth at 10 uM incubated for 48 hrs by sulforhodamine B assay; conditions: ht-29, 48 h
[18] = test system: MDA-MB-435; experiment: Cytotoxicity against human MDA-MB-435 cells assessed as effect on cell growth at 10 uM incubated for 48 hrs by sulforhodamine B assay; conditions: mda-mb-435, 48 h
[19] = test system: RPMI-8226; experiment: Cytotoxicity against human RPMI8226 cells assessed as effect on cell growth at 10 uM incubated for 48 hrs by sulforhodamine B assay; conditions: rpmi-8226, 48 h
[20] = test system: M14; experiment: Cytotoxicity against human M14 cells assessed as effect on cell growth at 10 uM incubated for 48 hrs by sulforhodamine B assay; conditions: m14, 48 h

Measured: Activity

O=C(NCCc1ccccc1)[C@@H]1CCC(=O)N1Cc1ccc(Br)cc1
Non-Toxic: [1] | [2] | [3] | [4] | [5] | [6] | [7] | [8] | [9] | [10] | [11] | [12] | [13] | [14] | [15] | [16] | [17] | [18] | [19] | [20]

COc1ccc(N2C(=O)CC[C@H]2C(=O)NCc2ccc(Cl)cc2Cl)cc1
Non-Toxic: [1] | [2] | [3] | [4] | [5] | [6] | [7] | [8] | [9] | [10] | [11] | [12] | [13] | [14] | [15] | [16] | [17] | [18] | [19] | [20]

CN1C(=O)C(C)(C)C[C@H]1C(=O)NCc1cccc(C(F)(F)F)c1Cl
Non-Toxic: [1] | [2] | [3] | [4] | [5] | [6] | [7] | [8] | [9] | [10] | [11] | [12] | [13] | [14] | [15] | [16] | [17] | [18] | [19] | [20]

O=C1N[C@H](C(=O)NCc2ccc(Cl)cc2Cl)C/C1=N\O (stereo in doubt)
Non-Toxic: [1] | [2] | [3] | [4] | [5] | [6] | [7] | [8] | [9] | [10] | [11] | [12] | [13] | [14] | [15] | [16] | [17] | [18] | [19] | [20]

CN(C)/C=C1\C[C@H]2C(=O)N(Cc3ccc(Cl)cc3Cl)C(N(C)C)N2C1=O (stereo not given in full)
Non-Toxic: [1] | [2] | [3] | [4] | [5] | [6] | [7] | [8] | [9] | [10] | [11] | [12] | [13] | [14] | [15] | [16] | [17] | [18] | [19] | [20]

COc1ccc(N2C(=O)[C@@H]3C/C(=C\N(C)C)C(=O)N3C2N(C)C)cc1 (stereo not given in full)
Non-Toxic: [1] | [2] | [3] | [4] | [5] | [6] | [7] | [8] | [9] | [10] | [11] | [12] | [13] | [14] | [15] | [16] | [17] | [18] | [19] | [20]

COc1ccc(NC(=O)[C@@H]2CCC(=O)N2)cc1OC
Non-Toxic: [1] | [2] | [3] | [4] | [5] | [6] | [7] | [8] | [9] | [10] | [11] | [12] | [13] | [14] | [15] | [16] | [17] | [18] | [19] | [20]

COc1cc(CNC(=O)[C@@H]2CCC(=O)N2)cc(OC)c1OC
Non-Toxic: [1] | [2] | [3] | [4] | [5] | [6] | [7] | [8] | [9] | [10] | [11] | [12] | [13] | [14] | [15] | [16] | [17] | [18] | [19] | [20]

COc1ccc(CN2C(=O)CC[C@H]2C(=O)NCCc2ccccc2)cc1
Non-Toxic: [1] | [2] | [3] | [4] | [5] | [6] | [7] | [8] | [9] | [10] | [11] | [12] | [13] | [14] | [15] | [16] | [17] | [18] | [19] | [20]

CN(C)/C=C1\C[C@H]2C(=O)N(/C(=C/N(C)C)c3ccncc3)C(N(C)C)N2C1=O (stereo not given in full)
Non-Toxic: [1] | [2] | [3] | [4] | [5] | [6] | [7] | [8] | [9] | [10] | [11] | [12] | [13] | [14] | [15] | [16] | [17] | [18] | [19] | [20]

O=C(NCc1ccccc1Cl)[C@@H]1CCC(=O)N1Cc1ccccc1
Non-Toxic: [1] | [2] | [3] | [4] | [5] | [6] | [7] | [8] | [9] | [10] | [11] | [12] | [13] | [14] | [15] | [16] | [17] | [18] | [19] | [20]

O=C1CCCC(C(=O)NCc2ccc(Cl)cc2Cl)N1 (stereo not given)
Non-Toxic: [1] | [2] | [3] | [4] | [5] | [6] | [7] | [8] | [9] | [10] | [11] | [12] | [13] | [14] | [15] | [16] | [17] | [18] | [19] | [20]

COc1ccc(CNC(=O)[C@@H]2CCC(=O)N2Cc2ccc(Cl)cc2Cl)c(OC)c1
Non-Toxic: [1] | [2] | [3] | [4] | [5] | [6] | [7] | [8] | [9] | [10] | [11] | [12] | [13] | [14] | [15] | [16] | [17] | [18] | [19] | [20]

C[n+]1ccccc1C(=O)NCc1ccc(Cl)cc1Cl.[I-]
Non-Toxic: [1] | [2] | [3] | [4] | [5] | [6] | [7] | [8] | [9] | [10] | [11] | [12] | [13] | [14] | [15] | [16] | [17] | [18] | [19] | [20]
